Measurements: patent publication US20090062208A1, “Methods for maintaining blood-brain barrier integrity in hypertensive subjects using a delta-PKC inhibitor” (priority 2007, published 2009)

Experiments:
middle cerebral arteries = settings: DS rats; Payne and Smeda 2002; cited from earlier work
[1] = system: zonula occludens 1 (ZO-1), and occludin; experiment: Immunoblot analysis of blood brain barrier-related proteins; type: in vivo, rat; settings: hypertensive DS rats
Protocol: (§1) The rats were subcutaneously infused (i.e., treated) with a saline solution, a control TAT peptide (YGRKKRRQRRR, SEQ ID NO:85), or the peptide inhibitor δV1-1 (SFNSYELGSL, SEQ ID NO: 1) attached via an N-terminal disulfide bond to TAT peptide (YGRKKRRQRRR-CC-SFNSYELGSL, SEQ ID NO:89), at a rate of 5.0 μL/hour, using an osmotic minipump. Treatment began at 11 weeks of age and survival rate and neurological deficits were recorded through week 15. Blood pressure was measured bi-weekly and blood-brain barrier disruption was assessed at 13 weeks by measuring Evans Blue dye extravasation. Proteomic analysis of brain samples was carried out to identify differences in the brains of control TAT peptide and δV1-1-treated animals. Blood brain barrier-related proteins were evaluated by immunoblot analysis.

transferrin and actin = experiment: Proteomic analysis of brain samples; type: in vivo, rat; settings: brain samples taken at 13 weeks of age, continuous administration
Protocol: (§2) As detailed in Example 1, Dahl salt-sensitive (DS) rats, which are a model for hypertension in humans, were used to evaluate the efficacy of δPKC inhibitor treatment. The animals were initially maintained on a low-salt (0.3% NaCl) diet then switched to a high-salt (8% NaCl) to induce hypertension. The rats were subcutaneously treated with either a saline solution, a control peptide (TAT, SEQ ID NO:85), or a δPKC peptide inhibitor. Blood pressure was measured bi-weekly and blood-brain barrier (BBB) disruption was assessed at the end of the treatment period. Proteomic analysis of brain samples was carried out to identify differences in the brains of control TAT peptide and δV1-1-treated animals.
as §1, with “Proteomic analysis of brain samples was carried out to identify differences in the brains of control TAT peptide and δV1-1-treated animals.” left out

[2] = system: Dahl salt-sensitive (DS) rats; experiment: Hypertension-induced stroke in Dahl salt-sensitive rats on high-salt diet (blood pressure, stroke incidence); type: in vivo, rat; settings: hypertensive DS rats; for blood pressure: subcutaneous infusion by osmotic minipump, versus control TAT peptide
Protocol: as §2
Male Dahl salt-sensitive (DS) rats were maintained on a low-salt (0.3% NaCl) diet until 6 weeks of age. The animals were then switched to a high-salt (8% NaCl) diet until 15 weeks of age. The animals were monitored daily for symptoms of systemic hypertension.
as §1

blood-brain barrier = experiment: Blood-brain barrier disruption by Evans Blue dye extravasation; type: in vivo, rat; settings: hypertensive DS rats, at 13 weeks, n=6, p<0.01
Protocol: as §2
as §1, with “Proteomic analysis of brain samples was carried out to identify differences in the brains of control TAT peptide and δV1-1-treated animals.” left out

Compound	middle cerebral artery constriction in response to elevated blood pressure (middle cerebral arteries)	hypertension-induced redistribution of tight junction-related proteins ZO-1 and occludin [1]	increased levels of transferrin and actin in brain samples (transferrin and actin)	incidence of stroke (and stroke-associated symptoms) ([2]; relative to the TAT control group, n=24, p<0.01)	blood pressure ([2]; listed as δPKC inhibitor)	blood pressure ([2]; listed as δV1-1 peptide)	Evans Blue extravasation into the brain parenchyma (blood-brain barrier)
bisindolylmaleimide	inhibited constriction	–	–	–	–	–	–
COc1ccc2c(c[n+](C)c3c4cc5c(cc4ccc23)OCO5)c1OC [chelerythrine]	inhibited constriction	–	–	–	–	–	–
YGRKKRRQRRR-CC-SFNSYELGSL [δV1-1]	–	blocked	attenuated	significantly decreased	similar	identical	reduced
